The text below walks through data of US12447137B2, “Composition for prevention, amelioration, or treatment of cancer” (EWHA UNIVERSITY—INDUSTRY COLLABORATION FOUNDATION, priority 2019, dated 2025).

The subject of one test is 4T1 cell line. Kind of test: Cell viability assay (WST-1). Particulars: Mus musculus; 4T1, 10 μM, 24 hours; FIG. 3A; read-out: cancer cell viability inhibited. The test is classed as cell-based. The protocol:
(§1) [4-1-1] The breast cancer cell line of Experimental Method 1 was treated with 5-aminoimidazole-4-carboxamide ribonucleotide (AICAR) (which is not the compound of Production Example 6) or the compound of Production Example 6 at a concentration of 0 to 30 μM, and then cultured for 24 hours, 48 hours and 72 hours. Thereafter, the cultured cells were treated with WST-1 reagent, and then the absorbance at a wavelength of 450 nm was measured. Here, the WST-1 reagent allows the cell viability to be measured by changing the color of the culture medium depending on the level of the mitochondrial dehydrogenase present in the cell.
(§2) [4-1-2] The breast cancer cell line 4T1, BT549 or MDA-MB-231 of Experimental Method 1 was treated with each of the compound of Production Example 6 and 13 compounds, including the compounds of Production Examples 1 to 5 and 8 to 15 having a similar structure (YE-01, 02, 03, 04, 05, 08, 09, 10, 11, 12, 13, 14 and 15), at a concentration of 0 to 50 μM, and then cultured for 24 hours. Each of three types of gastric cancer cell lines, brain cancer cell lines and pancreatic cancer cell lines was treated with the compound of Production Example 6 or the compound of Production Example 8 having a similar structure at a concentration of 0 to 50 μM, and then cultured for 24 hours. Thereafter, the cultured cells were treated with WST-1 reagent according to the manufacturer's instruction, and after a certain time, the absorbance at a wavelength of 450 nm was measured. Here, the WST-1 reagent allows the cell viability to be measured by changing the color of the culture medium depending on the level of the mitochondrial dehydrogenase present in the cell.
Background: Formazan colour is commonly taken as a measure of viable cells.

The next test relates to BT549 cell line. Put plainly: Cell viability assay (WST-1). The class given is cell-based. The following applies: Homo sapiens, BT-549; BT549, 10 μM, 24 hours; FIG. 3A; read-out: cancer cell viability inhibited. The protocol: as §1, §2
For the next test, the system named is MDA-MB-231 cell line. Put plainly: Cell viability assay (WST-1). The test is classed as cell-based. The following applies: Homo sapiens; MDA-MB-231, 10 μM, 24 hours; FIG. 3A; read-out: cancer cell viability inhibited. Here is the method: as §1, §2
The test system of test [1] is p-AMPK (Thr172). Kind of test: AMPK activation by p-AMPK (Thr172) Western blot in 4T1 cells. Particulars: 4T1, 10 μM, 24 hours; FIG. 3B. The test is classed as cell-based, mouse. Here is the method:
(§3) [3-1] The breast cancer cell line of Experimental Method 1 above was treated with the compound of Production Example 6 at a concentration of 0 to 30 μM, and then cultured for 24 hours. Thereafter, the cells were harvested and lysed in RIPA buffer, and the protein was electrophoresed by SDS-PAGE, and then the expression level of the protein was analyzed using antibodies specific for AMPK and phospho-AMPK (Thr172). GAPDH or β-actin was used as a loading control for protein quantification.
(§4) [3-2] The three breast cancer cell lines (4T1, BT549, and MDA-MB-231) of Experimental Method 1 were treated with each of the compound of Production Example 6 and 13 compounds, including the compounds of Production Examples 1 to 5 and 8 to 15 having a similar structure (YE-01, 02, 03, 04, 05, 08, 09, 10, 11, 12, 13, 14 and 15), at a concentration of 10 μM, and then cultured for 24 hours. In addition, each of two types of gastric cancer cell lines, brain cancer cell lines and pancreatic cancer cell lines was treated with the compound of Production Example 6 or the compound of Production Example 8 having a similar structure at a concentration of 10 μM and then cultured for 12 hours. Thereafter, the cells were harvested and lysed in RIPA buffer, and the protein was electrophoresed by SDS-PAGE, and then the expression level of the protein was analyzed using antibodies specific for AMPK and phospho-AMPK (Thr172). GAPDH or β-actin was used as a loading control for protein quantification.
(Immunoblotting shows a protein as a band on a membrane.)

Test [2] relates to p-AMPK (Thr172). Kind of test: AMPK activation by p-AMPK (Thr172) Western blot in BT549 cells. Particulars: BT549, 10 μM, 24 hours; FIG. 3B. The test is classed as cell-based, human. The protocol:
as §3
as §4, with “In addition, each of two types of gastric cancer cell lines, brain cancer cell lines and pancreatic cancer cell lines was treated with the compound of Production Example 6 or the compound of Production Example 8 having a similar structure at a concentration of 10 μM and then cultured for 12 hours.” left out

The test system of test [3] is p-AMPK (Thr172). Put plainly: AMPK activation by p-AMPK (Thr172) Western blot in MDA-MB-231 cells. The class given is cell-based, human. The following applies: MDA-MB-231, 10 μM, 24 hours; FIG. 3B. The protocol: as §3, §4
In test [4] the test system is p-AMPK (Thr172). Put plainly: AMPK activation by p-AMPK (Thr172) Western blot in gastric cancer cell lines. The class given is cell-based, human. The following applies: 10 μM, 12 hours, compared to untreated group. The protocol:
as §4

Test [5] concerns p-AMPK (Thr172). Put plainly: AMPK activation by p-AMPK (Thr172) Western blot in brain cancer cell lines. The class given is cell-based, human. The following applies: 10 μM, 12 hours, compared to untreated group. The protocol:
as §4

Test [6] concerns p-AMPK (Thr172). Kind of test: AMPK activation by p-AMPK (Thr172) Western blot in pancreatic cancer cell lines. The test is classed as cell-based, human. The following applies: 10 μM, 12 hours, compared to untreated group. Here is the method: as §4

On to `COc1ccc(OC)c(/C=C/C(=O)c2cccc(NS(=O)(=O)c3ccc(Cl)cc3)c2)c1` [Production Example 8, (E)-4-chloro-N-(3-(3-(2,5-dimethoxyphenyl)acryloyl)phenyl)benzenesulfonamide], for which the cytotoxicity at 10 µM in the test on 4T1 cell line, with BT549 cell line and in the test with MDA-MB-231 cell line was no less than 50% throughout. Moreover, the p-AMPK level entry with p-AMPK (Thr172) [1], in the test with p-AMPK (Thr172) [2] and in the test with p-AMPK (Thr172) [3] was “effectively increased” in each case. For the same molecule, the “expression of p-AMPK” value with p-AMPK (Thr172) [4], in the test with p-AMPK (Thr172) [5] and in the test on p-AMPK (Thr172) [6] was “increased” throughout.

Regarding `NC(=O)c1ncn([C@@H]2O[C@H](COP(=O)(O)O)[C@@H](O)[C@H]2O)c1N` [AICAR, 5-aminoimidazole-4-carboxamide ribonucleotide, reference compound], the “expression of p-AMPK” value in the test with p-AMPK (Thr172) [4], with p-AMPK (Thr172) [5] and with p-AMPK (Thr172) [6] was “insignificant effect” each time.
